Results as given in ChEMBL document CHEMBL1201862, “PubChem BioAssay data set” (2004).
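48-hour exposure; five concentrations; linearly interpolated endpoints. GI50 marks 50% less growth.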 Activity calls are given as the source filed them. Rule as the data show it: active = GI50 up to about 1.1 µM and inactive = higher.

How the values were obtained:
Experiment in all cases: growth of human tumour cells (NCI), 48 h
786-0 = test system: 786-0
A498 = test system: A498
DLD-1 = test system: DLD-1
DMS-114 = test system: DMS-114
DU-145 = test system: DU-145
EKVX = test system: EKVX
HCC 2998 = test system: HCC 2998
HL-60 = test system: HL-60
KM-20L2 = test system: KM-20L2
LXFL 529 = test system: LXFL 529
M14 = test system: M14
M19-MEL = test system: M19-MEL
MCF7 = test system: MCF7
MDA-MB-231 = test system: MDA-MB-231
MDA-MB-435 = test system: MDA-MB-435
NCI-H522 = test system: NCI-H522
OVCAR-3 = test system: OVCAR-3
TK-10 = test system: TK-10
UACC-62 = test system: UACC-62
UO-31 = test system: UO-31

SMILES	GI50 (786-0)	GI50 (A498)	GI50 (DLD-1)	GI50 (DMS-114)	GI50 (DU-145)	GI50 (EKVX)	GI50 (HCC 2998)	GI50 (HL-60)	GI50 (KM-20L2)	GI50 (LXFL 529)	GI50 (M14)	GI50 (M19-MEL)	GI50 (MCF7)	GI50 (MDA-MB-231)	GI50 (MDA-MB-435)	GI50 (NCI-H522)	GI50 (OVCAR-3)	GI50 (TK-10)	GI50 (UACC-62)	GI50 (UO-31)
CCCCNCCCNCCCNC(=O)c1csc(-c2csc(CCNC(=O)C(NC(=O)C(C)C(O)C(C)NC(=O)C(NC(=O)c3nc(C(CC(N)=O)NCC(N)C(N)=O)nc(N)c3C)C(OC3OC(CO)C(O)C(O)C3OC3OC(CO)C(O)C(OC(N)=O)C3O)c3c[nH]cn3)C(C)O)n2)n1 (stereo unspecified)	0.167 µM (active)	3.65 µM (inactive)	20.9 µM (inactive)	0.611 µM (active)	11.1 µM (inactive)	14 µM (inactive)	43.7 µM (inactive)	14.9 µM (inactive)	61.5 µM (inactive)	40.6 µM (inactive)	1.43 µM (inactive)	8.89 µM (inactive)	1.86 µM (inactive)	30.3 µM (inactive)	18.7 µM (inactive)	0.791 µM (active)	2.86 µM (inactive)	17.3 µM (inactive)	0.362 µM (active)	0.372 µM (active)
CC1C2CC=CC(=O)[C@@]2(C)CCC12OCCO2 (stereo partly specified)	> 100 µM (inactive)	> 100 µM (inactive)	> 100 µM (inactive)	> 100 µM (inactive)		> 100 µM (inactive)	> 100 µM (inactive)	> 10 µM (inactive)	49.9 µM (inactive)	> 100 µM (inactive)	97.1 µM (inactive)	> 100 µM (inactive)				> 100 µM (inactive)	> 100 µM (inactive)	> 100 µM (inactive)	> 100 µM (inactive)	> 100 µM (inactive)
Nc1nc2[nH]cnc2c(=S)[nH]1 [THIOGUANINE]	0.796 µM (active)	6.68 µM (inactive)	0.962 µM (active)	0.849 µM (active)	0.776 µM (active)	2.03 µM (inactive)	0.957 µM (active)	1.11 µM (active)	0.782 µM (active)	8.45 µM (inactive)	0.56 µM (active)	9.82 µM (inactive)	0.701 µM (active)	2.51 µM (inactive)	0.851 µM (active)	0.895 µM (active)	0.767 µM (active)	0.962 µM (active)	0.537 µM (active)	1.56 µM (inactive)
